Source: the OligoGym collection
Several values for one entry are separate records, joined by “and”; a condition that tells them apart may be missing. Equal values may be shown once. After the bases stand the sugars from the 5' end (letter, count) and the backbone: PS all phosphorothioate, else s phosphorothioate and o phosphodiester by linkage. Methylation of C is not given here. e = 2'-O-(2-methoxyethyl) (MOE); d = 2'-deoxy (DNA)

Target: DGAT2
Details: ASO

Row | Sequence | target mRNA inhibition (HepG2, 2.5 µM) | target mRNA inhibition (HepG2, 10 µM) | target mRNA inhibition (HepG2, 20 µM) [%] | target mRNA inhibition (HepG2, 0.12 µM) [%]
1 | GGCCAAGGACAGAGGTTCAA (sugars e5 d10 e5, PS) | 60% | 87% |  | 
2 | TCTCATTTCTTATCTTCAAT (sugars e5 d10 e5, PS) | 60% and 72% | 88% and 93% |  | 
3 | CACTTGATCTGGGACCCAAA (sugars e5 d10 e5, PS) | 41% | 92% |  | 
4 | CCGGACTGAATGTCACC (sugars e3 d10 e4, PS) | 79% and 82% |  |  | 
5 | GATGCTCCAGGTGGGCCAGA (sugars e5 d10 e5, PS) | 52% | 82% |  | 
6 | GTGGTTGCAATGTTGCC (sugars e3 d10 e4, PS) | 67% and 80% | 88% and 94% |  | 
7 | GCCCAGTTTCGGACCCACTG (sugars e5 d10 e5, PS) | 37% | 46% | 65 | 
8 | CTTCTTGCTCACTTCTGTGG (sugars e5 d10 e5, PS) |  |  |  | 25
9 | CTCTGCGCGATTCACTGAGG (sugars e5 d10 e5, PS) | 53% | 86% |  | 
10 | CCAAGCAGGAGCTGGACAGA (sugars e5 d10 e5, PS) |  |  |  | 19
11 | TGCCATTTAATGAGCTTCAC (sugars e5 d10 e5, PS) | 79% and 81% | 91% and 92% |  | 
12 | GCTCAGATCACTCTGCACAG (sugars e5 d10 e5, PS) | 77% and 81% and 82% | 90% and 86% and 89% |  | 
13 | GACAAGCGACAGCCCTGTGC (sugars e5 d10 e5, PS) | 75% | 79% |  | 
14 | GTCTGGGAACAGCAGCATCA (sugars e5 d10 e5, PS) | 72% | 89% |  | 
15 | GGTTCCGCAGGGTGACTGCA (sugars e5 d10 e5, PS) | 48% | 68% |  | 
16 | CAAGGATGACCTTGGGTCAG (sugars e5 d10 e5, PS) | 18% | 44% |  | 
17 | GTCTGTGCTGCATCCATGTC (sugars e5 d10 e5, PS) | 41% and 50% | 74% |  | 
18 | CACCAGGGCCTCCATGTACA (sugars e2 d13 e5, PS) |  |  |  | 69
19 | TTGGATAGTCGATTTACCAG (sugars e5 d10 e5, PS) | 62% | 92% |  | 
20 | CAGCTGTGATGACTTCCCAG (sugars e5 d10 e5, PS) | 49% | 81% |  | 
21 | GAGCAGATCTCAAAATCTCG (sugars e5 d10 e5, PS) | 72% | 87% |  | 

Row | Sequence | target mRNA inhibition (HepG2, 2.5 µM) | target mRNA inhibition (HepG2, 10 µM) | target mRNA inhibition (HepG2, 20 µM) [%] | target mRNA inhibition (HepG2, 0.12 µM) [%]
22 | GCCAGGCCCCTTCTGAAGAG (sugars e5 d10 e5, PS) |  |  |  | 36
23 | GCCACAGGGCCCTTTCCAGA (sugars e5 d10 e5, PS) | 68% | 92% |  | 
24 | GAGTAGGGCACCAGCCCCCA (sugars e5 d10 e5, PS) |  |  |  | 0
25 | TATGCCTGGGAACTTCTTGC (sugars e5 d10 e5, PS) |  |  |  | 26
26 | CAGGTAAGGCCGTATGCCTG (sugars e3 d14 e3, PS) |  |  |  | 72
27 | GACCCACTGTGACCTCCTGC (sugars e5 d10 e5, PS) |  |  |  | 25
28 | AAGGTAAACTGAGGCCACCA (sugars e5 d10 e5, PS) |  |  |  | 37
29 | TGGTGGTCAGCAGGTTGTGT (sugars e5 d10 e5, PS) |  |  |  | 51
30 | CGTTGGTCTTTTTGGCTGCC (sugars e5 d10 e5, PS) | 88% | 81% |  | 
31 | GATTCAAATCTGTGTGACCT (sugars e5 d10 e5, PS) | 64% and 83% | 89% and 92% |  | 
32 | GAAGGCACAGAAAAGTGAGG (sugars e5 d10 e5, PS) |  |  |  | 11
33 | CCCACTGGAGCACTGAGATG (sugars e2 d13 e5, PS) |  |  |  | 70
34 | TGGCCTGGATGGCAACCTAA (sugars e5 d10 e5, PS) | 46% | 83% |  | 
35 | AGATGGACAGGTGATTCTAA (sugars e5 d10 e5, PS) |  |  |  | 50
36 | GACAGCTGTGATGACTTCCC (sugars e5 d10 e5, PS) | 73% | 87% |  | 
37 | TGCAGCCTACAAGAGCCTGT (sugars e5 d10 e5, PS) | 54% | 90% |  | 
38 | ATCCCAACTCTGCCATTTAA (sugars e5 d10 e5, PS) | 60% | 90% |  | 
39 | AACCCACAGACACCCATGAC (sugars e5 d10 e5, PS) |  |  |  | 4
40 | ATGGAGTGACAGGGCAGGAA (sugars e5 d10 e5, PS) |  |  |  | 59
41 | TTTAGGCTATGGTCTGAGCA (sugars e5 d10 e5, PS) | 68% and 55% | 85% and 78% |  | 
42 | CTATAGAATCAGACAGACCT (sugars e5 d10 e5, PS) | 31% | 78% |  | 

Row | Sequence | target mRNA inhibition (HepG2, 2.5 µM) | target mRNA inhibition (HepG2, 10 µM) | target mRNA inhibition (HepG2, 20 µM) [%] | target mRNA inhibition (HepG2, 0.12 µM) [%]
43 | AAGATTCATAACTATATCTA (sugars e5 d10 e5, PS) |  |  |  | 6
44 | GCACTAAGCTAGGCACACCC (sugars e5 d10 e5, PS) | 62% | 90% |  | 
45 | AACTTCTTCTGGACCCATCG (sugars e5 d10 e5, PS) |  |  |  | 28
46 | ACAACAGCAAATATACACCA (sugars e5 d10 e5, PS) | 87% | 56% |  | 
47 | AATGTCACAAGTTCACAAAC (sugars e5 d10 e5, PS) |  |  |  | 4
48 | ATCACAGAGCTTGGTTCATC (sugars e5 d10 e5, PS) | 61% and 44% | 93% and 85% |  | 
49 | TCATACTAGACTATGCAGCC (sugars e5 d10 e5, PS) | 72% | 85% |  | 
50 | CACTGGAGCACTGAGATGAC (sugars e3 d14 e3, PS) |  |  |  | 55
51 | GAGTAGTCAAAGGTGGCTTC (sugars e5 d10 e5, PS) | 66% | 78% |  | 
52 | TTTCTTATCTTCAATCCTCA (sugars e5 d10 e5, PS) | 56% | 90% |  | 
53 | AGCCAGGTAAGGCCGTATGC (sugars e5 d10 e5, PS) |  |  |  | 70
54 | AATAACCCACAGACACCCAT (sugars e5 d10 e5, PS) |  |  |  | 0
55 | TCCATTTTTTACCCAACCTT (sugars e5 d10 e5, PS) | 56% and 49% | 93% and 94% |  | 
56 | AAATCACAGAATTATCAGCA (sugars e5 d10 e5, PS) | 57% | 92% |  | 
57 | CCAGTTTCGGACCCACTGTG (sugars e3 d14 e3, PS) |  |  |  | 82
58 | GGGTCATTTTGGAGACCACA (sugars e5 d10 e5, PS) | 59% | 83% |  | 
59 | GCATGGAGCTCAGAGACTCA (sugars e5 d10 e5, PS) |  |  |  | 69
60 | CCTCCTCGAAGATCACCTGC (sugars e5 d10 e5, PS) |  |  |  | 49
61 | CCACCACCTAGAACAGGGCA (sugars e5 d10 e5, PS) |  |  |  | 55
62 | TCGCTAGAGTACAAGTTCTC (sugars e5 d10 e5, PS) | 88% | 93% |  | 
63 | TCCAAGTGTACTTTGAGCAT (sugars e5 d10 e5, PS) | 58% and 54% | 84% and 91% |  | 
